Test results reported in patent publication US5244661A, “Process for producing a polyene antibiotic” (Ajinomoto Company, Inc., priority 1989, dated 1993).
In brackets after ≈: the same amount, converted by molar mass.

How the values were obtained:
[1] = tested on: Candida albicans ATCC 10231; experiment: minimum growth inhibitory concentration (MIC) against Candida albicans ATCC 10231; format: cell-based
[2] = tested on: Saccharomyces ubran ATCC 9080; experiment: minimum growth inhibitory concentration (MIC) against Saccharomyces ubran ATCC 9080; format: cell-based; settings: Table 3

`COC(=O)C1C(O)CC2(O)CC(O)CC(O)CC(O)CC(O)CC(=O)CC(O)CC(=O)OC(C(C)CCC(O)CC(=O)c3ccc(N)cc3)C(C)/C=C/C=C/C=C/C=C/C=C/C=C/C=C/C(O[C@H]3O[C@@H](C)[C@H](O)[C@@H](N)[C@H]3O)CC1O2` (stereo partly drawn) [partricin B methyl ester] was tested, and the “minimum growth inhibitory concentration (MIC)” value ([1]; Example 7) was 0.52 mg/L.
With `CC1/C=C/C=C/C=C/C=C/C=C/C=C/C=C/C(O[C@H]2O[C@@H](C)[C@H](O)[C@@H](N)[C@H]2O)CC2OC(O)(CC(O)CC(O)CC(O)CC(O)CC(=O)CC(O)CC(=O)OC1C(C)CCC(O)CC(=O)c1ccc(N)cc1)CC(O)C2C(=O)O` (stereo partly drawn) [Partricin B, partricin B] the MIC ([1]; Table 3) was 0.04 mg/L (≈ 0.0359 µM) and the MIC [2] was 0.04 mg/L (≈ 0.0359 µM).
